Laboratory results: patent US10736898B2, “Positive allosteric modulators of the muscarinic acetylcholine receptor M4” (Vanderbilt University, priority 2017, dated 2020)

What was measured:
Human M4 = target: T1, Human M4 (Homo sapiens, UniProt P08173); experiment: mAChR M4 cell-based functional assay (calcium flux, potentiation of EC20 acetylcholine response); conditions: for Emax at 30 µM: % ACh maximum at 30 μM, human M4; for EC50: CHO-K1 cells with human M4 and Gqi5, increase in EC20 acetylcholine response
T1 construct: expressed in transfected cells
T1 sequence (P08173 1-479): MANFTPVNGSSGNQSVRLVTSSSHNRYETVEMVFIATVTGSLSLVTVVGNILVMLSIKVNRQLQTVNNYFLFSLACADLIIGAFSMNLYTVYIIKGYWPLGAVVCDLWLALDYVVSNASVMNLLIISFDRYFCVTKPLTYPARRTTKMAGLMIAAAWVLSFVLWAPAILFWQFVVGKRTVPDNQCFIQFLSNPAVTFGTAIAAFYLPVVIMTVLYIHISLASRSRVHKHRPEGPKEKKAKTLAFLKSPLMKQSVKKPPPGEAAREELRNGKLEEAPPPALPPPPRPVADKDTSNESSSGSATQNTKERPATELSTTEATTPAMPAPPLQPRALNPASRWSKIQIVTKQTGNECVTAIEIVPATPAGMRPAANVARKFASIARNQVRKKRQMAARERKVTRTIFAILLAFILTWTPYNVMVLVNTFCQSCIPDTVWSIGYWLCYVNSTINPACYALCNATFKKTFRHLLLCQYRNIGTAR

male Sprague-Dawley rats = experiment: Reversal of amphetamine-induced hyperlocomotion in rats; assay type: in vivo, rat; conditions: 10 mg/kg p.o.
Method: Drugs: d-Amphetamine hemisulfate was obtained from Sigma (St. Louis, Mo.). Salt-correction was used to determine the correct amount of the d-amphetamine hemisulfate form in milligrams to add to sterile water in order to yield a 0.75 mg/mL solution, which would be dosed at 1 mL/kg body weight of each animal. […] The solutions were formulated so that animals were injected with a volume equal to 10 mL/kg body weight for all compounds. The appropriate amount according to the dosage was mixed in 10% Tween 80 (Sigma) 90% sterile water. The mixtures were then vortexed and stored in a 39° C. sonication bath for 1 hour, until in a microsuspension (except for the highest dose, which was a suspension).
Animals: Male Sprague-Dawley rats weighing 239-300 grams and averaging 265 g (Harlan, Inc., Indianapolis, Ind.) were used. They were housed in the animal care facility certified by the American Association for the Accreditation of Laboratory Animal Care (AALAC) under a 12-hour light/dark cycle (lights on: 6 a.m.; lights off: 6 p.m.) and had free access to food and water. The animals used in this experiment were food-deprived the evening before experimentation for oral dosing of compound/vehicle. The experimental protocols performed during the light cycle were approved by the Institutional Animals Care and Use Committee of Vanderbilt University and conformed to the guidelines established by the National Research Council Guide for the Care and Use of Laboratory Animals.
Amphetamine-induced Hyperlocomotion: Male Harlan Sprague Dawley rats were habituated in Smart Open Field locomotor activity test chambers (Hamilton-Kinder, San Diego, Calif.) with 16×16 photo beams to automatically record locomotor activity. […] They were monitored for an additional 30 minutes and then injected subcutaneously with vehicle or […] amphetamine. Animals were then monitored for an additional 60 minutes, for a total of 120 minutes. Data were expressed as changes in ambulation defined as total number of beam breaks per 5 minute interval. […]
Data Analysis: Behavioral data were analyzed using a two-way ANOVA with main effects of treatment and time. […] In addition, the total number of beam breaks from the amphetamine administration (65 min) to the end of the study (120 min) was calculated and graphed. Percent Reversal was calculated as follows using Microsoft Excel: In each animal, total ambulation from t=65 to t=120 was summed. The mean of each sum was calculated in the VAMP group. Then, for each animal, Percent Reversal was calculated with the following formula: Percent Reversal=100−{[(total ambulation in each animal from t=65 to t=120)/(mean of each sum from t=65 to t=120 in VAMP group)]*100}. The mean Percent Reversal, as well as the standard error, was calculated for each dose group using GraphPad Prism V5.04.

Row | Emax at 30 µM (Human M4) [%] | EC50 (Human M4) [µM] | Compound | percent reversal of amphetamine-induced hyperlocomotion (male Sprague-Dawley rats) [%]
1 | 66.4 | > 10 | Cc1nc(CC(C)C)nc2sc3c(NCc4ccc(C(C)(C)O)cc4)nccc3c12 [Compound 36, 2-[4-[[(2-isobutyl-4-methyl-pyrido[4,5]thieno[1,2-b]pyrimidin-8-yl)amino]methyl]phenyl]propan-2-ol] | –
2 | 55 | > 10 | Cc1nc(C2CC2)nc2sc3c(N4CCCCC4)nccc3c12 [Compound 37, 2-cyclopropyl-4-methyl-8-(1-piperidyl)pyrido[4,5]thieno[1,2-d]pyrimidine] | –
3 | 65 | 1.01 | Cc1nc(C2CC2)nc2sc3c(N4CCCC4)nccc3c12 [Compound 38, 2-cyclopropyl-4-methyl-8-pyrrolidin-1-yl-pyrido[4,5]thieno[1,2-d]pyrimidine] | –
4 | 69 | 1.86 | Cc1nc(C2CC2)nc2sc3c(NC4CCCC4)nccc3c12 [Compound 39, N-cyclopentyl-2-cyclopropyl-4-methyl-pyrido[4,5]thieno[1,2-d]pyrimidin-8-amine] | –
5 | 73 | 1.47 | Cc1nc(C2CC2)nc2sc3c(N4CCC(F)CC4)nccc3c12 [Compound 40, 2-cyclopropyl-8-(4-fluoro-1-piperidyl)-4-methyl-pyrido[4,5]thieno[1,2-d]pyrimidine] | –
6 | 91.9 | 3.3 | Cc1nc(C)c2c(n1)sc1c(NCc3ccc(C(C)(C)O)cc3)ncc(Cl)c12 [Compound 41, 2-(4-(((5-chloro-2,4-dimethylpyrido[4′,3′:4,5]thieno[2,3-d]pyrimidin-8-yl)amino)methyl)phenyl)propan-2-ol] | –
7 | 50.3 | 4.35 | Cc1nc(C)c2c(n1)sc1c(NCc3ccc(F)c(F)c3)ncc(Cl)c12 [Compound 43, 5-chloro-N-[(3,4-difluorophenyl)methyl]-2,4-dimethyl-pyrido[4,5]thieno[1,2-b]pyrimidin-8-amine] | –
8 | 60.1 | 0.997 | Cc1nc(C)c2c(n1)sc1c(NC3CCC3)ncc(Cl)c12 [Compound 44, 5-chloro-N-cyclobutyl-2,4-dimethyl-pyrido[4,5]thieno[1,2-b]pyrimidin-8-amine] | –
9 | 66.7 | 0.734 | Cc1nc(C)c2c(n1)sc1c(NCc3ccc(C(C)(C)O)cc3)ncc(C#N)c12 [Compound 46, 8-((4-(2-hydroxypropan-2-yl)benzyl)amino)-2,4-dimethylpyrido[4′,3′:4,5]thieno[2,3-d]pyrimidine-5-carbonitrile] | –
10 | – | – | Cc1nnc2sc(C(=O)NCc3ccc(S(=O)(=O)C(F)(F)F)cc3)c(N)c2c1C [VU0467154-9A, 5-amino-3,4-dimethyl-N-(4-((trifluoromethyl)sulfonyl)benzyl)thieno[2,3-c]pyridazine-6-carboxamide, reference compound] | 55.0
